Data published in publication PMC6257622, “Discovery and Structure–Activity-Relationship Study of N-Alkyl-5-hydroxypyrimidinone Carboxamides as Novel Antitubercular Agents Targeting Decaprenylphosphoryl-β-D-ribose 2′-Oxidase” (Journal of Medicinal Chemistry, 2018).
Converted amounts (≈) assume the structure as drawn. “And” between values parts separate entries of the source, which are not always exact repeats. Identical values can stand only once. Like-named read-outs stand apart in the source and are kept apart here.

Columns and labels:
Mtb strain H37Rv = assay: MIC determination against Mtb H37Rv in different media; assay type: cell-based, Mycobacterium tuberculosis; settings: for antitubercular activity (in words): SAR discussion
in vitro = assay type: cell-based; settings: human; HepG2 cells in DMEM/10% FBS supplemented with glucose; read-out: Cytotoxicity (IC50) Glucose
HepG2 cells = assay: in vitro; assay type: cell-based
Mtb cydC::aph strain = assay type: cell-based, Mycobacterium tuberculosis
iniBAC promoter = assay type: cell-based, Mycobacterium tuberculosis
recA and radA reporters = assay type: cell-based, Mycobacterium tuberculosis
actively replicating Mtb = assay type: cell-based, Mycobacterium tuberculosis
[1] = tested on: anaerobic nonreplicating Mtb cells; assay type: cell-based, Mycobacterium tuberculosis; settings: 7 days exposure, 1–50× aerobic MIC, Wayne model
[2] = C57Bl/6 mice, oral, 10 mg/kg single dose
[3] = tested on: Mtb in J774 murine macrophages; assay: Intracellular killing assay in murine macrophage J774; settings: 1–50-fold MIC, 4 or 7 days
Protocol: For the ex vivo efficacy test, J774 cells (5 × 10^5 cells/well) were seeded in flat-bottom 24-well plates (Corning Inc.) in DMEM GlutaMAX (Gibco/ThermoFisher Scientific) supplemented with 10% fetal-bovine serum, 20 mM HEPES, and 0.5 mM sodium pyruvate (hereafter abbreviated as DMEM/FBS). Cells were infected with Mtb (5 × 10^5 cells/well, MOI 1) for 24 h; this was followed by medium removal and washing (2×) with an equal volume of Dulbecco’s PBS. Infected cells were fed DMEM/FBS and exposed to test compounds at 1×, 10×, 20×, and 50× MIC in medium (500 μL/well). Cells were incubated at 37 °C with 95% humidity and 5% CO2 in an incubator for 7 days. The medium was changed every 4 days. After 4 and 7 days of incubation, 0.1% SDS was added to each well to lyse the J774 cells. After 5 min, the lysate was thoroughly mixed and diluted in 7H9/ADC, and appropriate dilutions were plated in duplicate on 7H11/OADC plates.

[4] = Mycobacterium tuberculosis, H37RV, Mtb H37Rv in GAST (Table 2), read-out: MIC GAST
[5] = Mycobacterium tuberculosis, H37RV, supplementary CSV, read-out: MIC in 7H9/ADC
[6] = Mycobacterium tuberculosis, H37RV, supplementary CSV, read-out: MIC in GAST/Fe
[7] = Mycobacterium tuberculosis, H37RV, read-out: MIC 7H9/ADC
[8] = HepG2 cells in DMEM/10% FBS with galactose (mitochondrial toxicity), read-out: Cytotoxicity (IC50) Galactose
[9] = Mtb H37Rv in GAST (Table 2), read-out: MIC GAST
[10] = supplementary CSV, read-out: MIC in 7H9/ADC
[11] = supplementary CSV, read-out: MIC in GAST/Fe
[12] = HepG2 cells in DMEM/10% FBS supplemented with glucose, read-out: Cytotoxicity (IC50) Glucose

Molecule | MIC (Mtb strain H37Rv; [4]) [µM] | MIC (Mtb strain H37Rv; [5]) [µM] | MIC (Mtb strain H37Rv; [6]) [µM] | MIC (Mtb strain H37Rv; [7]) [µM] | antitubercular activity (in words) (Mtb strain H37Rv) | IC50 (in vitro) [µM] | IC50 (HepG2 cells; [8]) [µM] | further results
CC(NC(=O)c1nc(Cc2ccccc2C(F)(F)F)n(C)c(=O)c1O)c1ccccc1 (centres unmarked) [Compound P13, 5-Hydroxy-1-methyl-6-oxo-N-(1-phenylethyl)-2-(2-(trifluoromethyl)benzyl)-1,6-dihydropyrimidine-4-carboxamide] | > 100 | > 100 | > 100 | > 100 | loss of activity | > 100 | > 100 | 
Cn1c(Cc2ccccc2C(F)(F)F)nc(C(=O)NCC2CCCCC2)c(O)c1=O [Compound P06, N-(Cyclohexylmethyl)-5-hydroxy-1-methyl-6-oxo-2-(2-(trifluoromethyl)benzyl)-1,6-dihydropyrimidine-4-carboxamide] | 12.5 | > 100 | 12.5 | > 100 |  | > 100 | > 100 | 
O=C(NCc1ccccc1)c1nc(Cc2ccccc2C(F)(F)F)[nH]c(=O)c1O [Compound P14, N-Benzyl-5-hydroxy-6-oxo-2-(2-(trifluoromethyl)benzyl)-1,6-dihydropyrimidine-4-carboxamide] | > 100 | > 100 | > 100 | > 100 | not tolerated | > 100 | > 100 | 
COc1c(C(=O)NCc2ccccc2)nc(Cc2ccccc2C(F)(F)F)n(C)c1=O [Compound P17, N-Benzyl-5-methoxy-1-methyl-6-oxo-2-(2-(trifluoromethyl)benzyl)-1,6-dihydropyrimidine-4-carboxamide] | > 100 | > 100 | > 100 | > 100 | inactive | > 100 | > 100 | 
Cn1c(Cc2ccccc2C(F)(F)F)nc(C(=O)CCc2ccccc2)c(O)c1=O [Compound P18, 5-Hydroxy-3-methyl-6-(3-phenylpropanoyl)-2-(2-(trifluoromethyl)benzyl)pyrimidin-4(3H)-one] | 12.5 | 100 | 12.5 | 100 |  | > 100 | > 100 | 
Cn1c(Cc2ccccc2C(F)(F)F)nc(C(=O)NCc2ccccc2)c(O)c1=O [Compound P01, N-Benzyl-5-hydroxy-1-methyl-6-oxo-2-(2-(trifluoromethyl)benzyl)-1,6-dihydropyrimidine-4-carboxamide] | 0.59 | 4.7 | 0.59 | 4.7 ± 1.5 |  | > 100 | > 100 | MIC (Mtb strain H37Rv; Mycobacterium tuberculosis, H37RV, Mtb H37Rv, GAST medium (Table 1), read-out: MIC GAST): 0.4 ± 0.2 µM; MIC (Mtb strain H37Rv; Mycobacterium tuberculosis, H37RV, pH 6, read-out: MIC nitrite/butyrate): 12.5 µM; MIC (Mtb strain H37Rv; Mycobacterium tuberculosis, H37RV, read-out: MIC Chol): 1.6 µM; MIC (Mtb strain H37Rv; Mycobacterium tuberculosis, H37RV, read-out: MIC GBSA or DBSA): 3.1 µM; MIC (Mtb strain H37Rv; Mycobacterium tuberculosis, H37RV, read-out: MIC in 7H9/ADC): ~1.9 µg/mL; MIC (Mtb strain H37Rv; Mycobacterium tuberculosis, H37RV, read-out: MIC, DprE1 wild type): 3.13 µM; MIC (Mtb strain H37Rv; read-out: MIC 7H9/ADC): 4.7 µM; MIC CydKO (Mtb cydC::aph strain): 6.2 µM (≈ 2.59 µg/mL); reporter-gene assay cell wall (iniBAC promoter): positive; reporter-gene assay DNA damage (recA and radA reporters): no induction; logarithmic reduction in colony-forming units (actively replicating Mtb): 1–2 log; bactericidal activity against anaerobic nonreplicating Mtb [1]: lacked bactericidal activity; AUC [2]: 1060 ng·h/mL; CL [2]: 9.48; Tmax [2]: 1.0 h; Vd [2]: 33.7 L/kg; Cmax ([2]; suspension): 250 ng/mL; T1/2 ([2]; 10 mg/kg): 4 h and 4.1 h; activity against Mtb replication in J774 murine macrophages [3]: active
N-Benzyl-5-hydroxy-6-methoxy-2-(2-(trifluoromethyl)benzyl)pyrimidine-4-carboxamide [Compound P16] |  |  |  |  | inactive |  | > 100 | MIC (Mtb strain H37Rv; [9]): 37.5 µM; MIC (Mtb strain H37Rv; read-out: MIC 7H9/ADC): >100 µM; MIC (Mtb strain H37Rv; [10]): >100 µM; MIC (Mtb strain H37Rv; [11]): 37.5 µM; IC50 (HepG2 cells; [12]): > 100 µM
Cn1c(Cc2ccccc2C(F)(F)F)nc(C(=O)NCc2cccnc2)c(O)c1=O [Compound P08, 5-Hydroxy-1-methyl-6-oxo-N-(pyridin-3-ylmethyl)-2-(2-(trifluoromethyl)benzyl)-1,6-dihydropyrimidine-4-carboxamide] | 4.7 | 18.8 | 4.7 | 18.8 |  | > 100 | > 100 | 
CC(c1ccccc1C(F)(F)F)c1nc(C(=O)NCc2ccccc2)c(O)c(=O)n1C (centres unmarked) [Compound P15, N-Benzyl-5-hydroxy-1-methyl-6-oxo-2-(1-(2-(trifluoromethyl)phenyl)ethyl)-1,6-dihydropyrimidine-4-carboxamide] | 3.1 | 18.3 | 3.1 | 18.3 |  | > 100 | > 100 | fold increase in MIC (reduced potency) compared with P01 (Mtb strain H37Rv): 5 fold
Cn1c(Cc2ccccc2C(F)(F)F)nc(C(=O)NCc2ccc(F)cc2)c(O)c1=O [Compound P10, N-(4-Fluorobenzyl)-5-hydroxy-1-methyl-6-oxo-2-(2-(trifluoromethyl)benzyl)-1,6-dihydropyrimidine-4-carboxamide] | 2.3 | 18.8 | 2.3 | 18.8 |  | > 100 | > 100 | 
CN(Cc1ccccc1)C(=O)c1nc(Cc2ccccc2C(F)(F)F)n(C)c(=O)c1O [Compound P12, N-Benzyl-5-hydroxy-N,1-dimethyl-6-oxo-2-(2-(trifluoromethyl)benzyl)-1,6-dihydropyrimidine-4-carboxamide] | > 100 | > 100 | > 100 | > 100 | loss of activity | > 100 | > 100 | 
Cn1c(Cc2ccccc2C(F)(F)F)nc(C(=O)NCc2ccccc2F)c(O)c1=O [Compound P09, N-(2-Fluorobenzyl)-5-hydroxy-1-methyl-6-oxo-2-(2-(trifluoromethyl)benzyl)-1,6-dihydropyrimidine-4-carboxamide] | 0.59 | 4.7 | 0.59 | 4.7 |  | > 100 | > 100 | fold more potent than regioisomer P10 (Mtb strain H37Rv; o-F versus p-F): > 4 fold; activity against Mtb replication in J774 murine macrophages [3]: active
Cn1c(Cc2ccccc2)nc(C(=O)NCc2ccccc2)c(O)c1=O [Compound P02, N,2-Dibenzyl-5-hydroxy-1-methyl-6-oxo-1,6-dihydropyrimidine-4-carboxamide] | 3.1 | 9.4 | 3.1 | 9.4 |  | > 100 | > 100 | 
Cn1c(Cc2ccccc2C(F)(F)F)nc(C(=O)NCc2ccc3c(c2)OCO3)c(O)c1=O [Compound P11, N-(Benzo[d][1,3]dioxol-5-ylmethyl)-5-hydroxy-1-methyl-6-oxo-2-(2-(trifluoromethyl)benzyl)-1,6-dihydropyrimidine-4-carboxamide] | 37.5 | > 100 | 37.5 | > 100 |  | > 100 | > 100 | 
Cn1c(Cc2ccccc2C(F)(F)F)nc(C(=O)Nc2ccccc2)c(O)c1=O [Compound P05, 5-Hydroxy-1-methyl-6-oxo-N-phenyl-2-(2-(trifluoromethyl)benzyl)-1,6-dihydropyrimidine-4-carboxamide] | 1.6 | 18.8 | 1.6 | 18.8 |  | > 100 | > 100 | fold increase in MIC (reduced potency) compared with P01 (Mtb strain H37Rv): around 4 fold
Cn1c(Cc2ccccc2C(F)(F)F)nc(C(=O)NCc2ccccn2)c(O)c1=O [Compound P07, 5-Hydroxy-1-methyl-6-oxo-N-(pyridin-2-ylmethyl)-2-(2-(trifluoromethyl)benzyl)-1,6-dihydropyrimidine-4-carboxamide] | 1.2 | 3.1 | 1.2 | 3.1 |  | > 100 | > 100 | activity against Mtb replication in J774 murine macrophages [3]: active
CCn1c(Cc2ccccc2C(F)(F)F)nc(C(=O)NCc2ccccc2)c(O)c1=O [Compound P04, N-Benzyl-1-ethyl-5-hydroxy-6-oxo-2-(2-(trifluoromethyl)benzyl)-1,6-dihydropyrimidine-4-carboxamide] | 0.4 | 2.3 | 0.39 | 2.3 |  | > 100 | > 100 | MIC (Mtb strain H37Rv; [9]): 0.39 µM; activity against Mtb replication in J774 murine macrophages [3]: active
N-Benzyl-2-ethyl-5-hydroxy-1-methyl-6-oxo-1,6-dihydropyrimidine-4-carboxamide [Compound P03] |  |  |  |  | complete loss of potency |  | > 100 | MIC (Mtb strain H37Rv; [9]): >100 µM; MIC (Mtb strain H37Rv; read-out: MIC 7H9/ADC): >100 µM; MIC (Mtb strain H37Rv; [10]): >100 µM; MIC (Mtb strain H37Rv; [11]): >100 µM; IC50 (HepG2 cells; [12]): > 100 µM
